Each structure is given as a SMILES string.

The target in the first assay is T1, EGFR (Homo sapiens, UniProt P00533).
T1 construct: The intracellular portion of EGFR started at nucleotide 2189 (corresponding to amino acid 667) and ended at the termination codon; made in house; host or cells: Sf9 insect cells (baculovirus)
T1 sequence (P00533 669-1210 limits assumed): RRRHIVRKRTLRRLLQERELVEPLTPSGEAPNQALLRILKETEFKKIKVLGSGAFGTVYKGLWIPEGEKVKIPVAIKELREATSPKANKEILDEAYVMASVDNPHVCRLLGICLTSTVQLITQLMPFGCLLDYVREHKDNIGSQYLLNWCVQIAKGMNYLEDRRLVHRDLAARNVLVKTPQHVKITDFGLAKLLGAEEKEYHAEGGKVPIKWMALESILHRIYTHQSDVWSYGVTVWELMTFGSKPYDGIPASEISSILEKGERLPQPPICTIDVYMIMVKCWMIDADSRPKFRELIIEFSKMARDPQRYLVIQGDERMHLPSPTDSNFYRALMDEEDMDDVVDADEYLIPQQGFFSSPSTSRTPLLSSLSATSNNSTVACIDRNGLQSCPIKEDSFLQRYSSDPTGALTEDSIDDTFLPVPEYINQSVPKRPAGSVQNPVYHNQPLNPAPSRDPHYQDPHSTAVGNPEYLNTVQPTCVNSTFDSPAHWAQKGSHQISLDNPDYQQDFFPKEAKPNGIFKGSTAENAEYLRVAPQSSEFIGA
Kind of assay: EGFR Kinase Assay. Type of assay: biochemical. The conditions noted are these: GST-EGFR, ATP 5 μM. In a few lines:
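GST-fused human EGFR intracellular domain (from aa 667), Sf9-expressed, phosphorylated biotinylated polyGluTyr with 5 μM ATP plus γ-33P ATP in Tris pH 8.0, MgCl2, vanadate, 1 mM DTT, 1 h at 30 °C. Streptavidin Flashplate scintillation read; triplicate 16-point half-log series from 200 uM; IC50 from % inhibition vs log concentration, else % inhibition at 2 μM.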
On to `O=C(Nc1ccc(CN2CCOCC2)cc1)c1sc2ncnc3c2c1NC(=O)N3c1ccc(Oc2ccccc2)cc1` [Cpd 97, 4-oxo-5-(4-phenoxy-phenyl)-4,5-dihydro-3H-1-thia-3,5,6,8-tetraaza-acenaphthylene-2-carboxylic acid (4-morpholin-4-ylmethyl-phenyl)-amide], for which it took 13 nM to reach half-maximal inhibition (IC50). Same read-out and setting: for `O=C(Nc1ccc(CN2CCOCC2)cc1)c1sc2ncnc3c2c1NC(=O)N3c1ccc(Sc2ccccc2)cc1` [Cpd 178, 4-oxo-5-(4-phenylsulfanyl-phenyl)-4,5-dihydro-3H-1-thia-3,5,6,8-tetraaza-acenaphthylene-2-carboxylic acid (4-morpholin-4-ylmethyl-phenyl)-amide] the value was 77 nM; for `O=C(Nc1ccc(CN2CCCCC2)cc1)c1sc2ncnc3c2c1NC(=O)N3c1ccc(OCc2ccccn2)c(Cl)c1` [Cpd 89, 5-[3-chloro-4-(pyridin-2-ylmethoxy)-phenyl]-4-oxo-4,5-dihydro-3H-1-thia-3,5,6,8-tetraaza-acenaphthylene-2-carboxylic acid (4-piperidin-1-ylmethyl-phenyl)-amide], 34 nM; for `O=C(Nc1ccc(CN2CCOCC2)cc1)c1sc2ncnc3c2c1NC(=O)N3c1c(Cl)ccc2c1OCO2` [Cpd 62, 5-(5-chloro-benzo[1,3]dioxol-4-yl)-4-oxo-4,5-dihydro-3H-1-thia-3,5,6,8-tetraaza-acenaphthylene-2-carboxylic acid (4-morpholin-4-ylmethyl-phenyl)-amide], 356 nM.

`CN1CCN(Cc2ccc(NC(=O)c3sc4ncnc5c4c3NC(=O)N5c3ccc(OCc4ccccn4)c(Cl)c3)cc2)CC1` [Cpd 90, 5-[3-chloro-4-(pyridin-2-ylmethoxy)-phenyl]-4-oxo-4,5-dihydro-3H-1-thia-3,5,6,8-tetraaza-acenaphthylene-2-carboxylic acid [4-(4-methyl-piperazin-1-ylmethyl)-phenyl]-amide] displayed an IC50 of 112 nM. The same measure, in the same setting: as for `COc1cc(NC(=O)c2sc3ncnc4c3c2NC(=O)N4c2ccc(Oc3ccccc3)cc2)ccc1OCCN1CCCCC1` [Cpd 100, 4-oxo-5-(4-phenoxy-phenyl)-4,5-dihydro-3H-1-thia-3,5,6,8-tetraaza-acenaphthylene-2-carboxylic acid [3-methoxy-4-(2-piperidin-1-yl-ethoxy)-phenyl]-amide], the figure is 15 nM; as for `O=C(Nc1ccc(CN2CCOCC2)cc1)c1sc2ncnc3c2c1NC(=O)N3c1ccc(Oc2ccccc2)c(F)c1` [Cpd 113, 5-(3-fluoro-4-phenoxy-phenyl)-4-oxo-4,5-dihydro-3H-1-thia-3,5,6,8-tetraaza-acenaphthylene-2-carboxylic acid (4-morpholin-4-ylmethyl-phenyl)-amide], 21 nM; as for `O=C(Nc1ccc(NCCCN2CCOCC2)nc1)c1sc2ncnc3c2c1NC(=O)N3c1cccc(Br)c1` [Cpd 64, 5-(3-bromo-phenyl)-4-oxo-4,5-dihydro-3H-1-thia-3,5,6,8-tetraaza-acenaphthylene-2-carboxylic acid [6-(3-morpholin-4-yl-propylamino)-pyridin-3-yl]-amide], 159 nM.

The molecule `O=C(Nc1ccc(CN2CCCCC2)cc1)c1sc2ncnc3c2c1NC(=O)N3c1ccc(Oc2ccccc2)cc1` [Cpd 96, 4-oxo-5-(4-phenoxy-phenyl)-4,5-dihydro-3H-1-thia-3,5,6,8-tetraaza-acenaphthylene-2-carboxylic acid (4-piperidin-1-ylmethyl-phenyl)-amide] had a concentration for half-maximal inhibition (IC50) of 10 nM. On the same count and under the same terms, as for `CN1CCN(Cc2ccc(NC(=O)c3sc4ncnc5c4c3NC(=O)N5c3ccc(Oc4ccccc4)cc3)cc2)CC1` [Cpd 98, 4-oxo-5-(4-phenoxy-phenyl)-4,5-dihydro-3H-1-thia-3,5,6,8-tetraaza-acenaphthylene-2-carboxylic acid [4-(4-methyl-piperazin-1-ylmethyl)-phenyl]-amide], the figure is 22 nM. Same read-out and setting: as for `O=C(Nc1ccc(CN2CCCCC2)cc1)c1sc2ncnc3c2c1NC(=O)N3c1ccc(Sc2ccccc2)cc1` [Cpd 169, 4-oxo-5-(4-phenylsulfanyl-phenyl)-4,5-dihydro-3H-1-thia-3,5,6,8-tetraaza-acenaphthylene-2-carboxylic acid (4-piperidin-1-ylmethyl-phenyl)-amide], the figure is 29 nM.

Staying with this assay, now noted: test concentration of 2 μM; compounds without an IC50; read-out: EGFR inhibition in percent.
For `COc1cc(N2C(=O)Nc3c(C(=O)Nc4ccc(CN5CCCC5)cc4)sc4ncnc2c34)c(Cl)cc1Cl` [Cpd 43, 5-(2,4-dichloro-5-methoxy-phenyl)-4-oxo-4,5-dihydro-3H-1-thia-3,5,6,8-tetraaza-acenaphthylene-2-carboxylic acid (4-pyrrolidin-1-ylmethyl-phenyl)-amide], the inhibition at 2 µM is 47%. On the same count and under the same terms, as for `COc1ccc(Cl)c(N2C(=O)Nc3c(C(=O)Nc4ccc(CN5CCOCC5)cc4)sc4ncnc2c34)c1` [Cpd 51, 5-(2-chloro-5-methoxy-phenyl)-4-oxo-4,5-dihydro-3H-1-thia-3,5,6,8-tetraaza-acenaphthylene-2-carboxylic acid (4-morpholin-4-ylmethyl-phenyl)-amide], the figure is 53%; as for `COc1ccc(Cl)c(N2C(=O)Nc3c(C(=O)Nc4ccc(OCCN5CCOCC5)c(OC)c4)sc4ncnc2c34)c1` [Cpd 50, 5-(2-chloro-5-methoxy-phenyl)-4-oxo-4,5-dihydro-3H-1-thia-3,5,6,8-tetraaza-acenaphthylene-2-carboxylic acid [3-methoxy-4-(2-morpholin-4-yl-ethoxy)-phenyl]-amide], 30%. As for `COc1ccc(Cl)c(N2C(=O)Nc3c(C(=O)Nc4ccc(OC)c(OC)c4)sc4ncnc2c34)c1` [Cpd 49, 5-(2-chloro-5-methoxy-phenyl)-4-oxo-4,5-dihydro-3H-1-thia-3,5,6,8-tetraaza-acenaphthylene-2-carboxylic acid (3,4-dimethoxy-phenyl)-amide], the inhibition at 2 µM worked out at 25%. Still for that read-out and setting: as for `O=C(Nc1ccc(CN2CCOCC2)cc1)c1sc2ncnc3c2c1NC(=O)N3c1c(Cl)cccc1Cl` [Cpd 104, 5-(2,6-dichloro-phenyl)-4-oxo-4,5-dihydro-3H-1-thia-3,5,6,8-tetraaza-acenaphthylene-2-carboxylic acid (4-morpholin-4-ylmethyl-phenyl)-amide], the figure is 41%. The same measure, in the same setting: as for `COC(=O)c1sc2ncnc3c2c1NC(=O)N3c1c(Cl)ccc2c1OCO2` [Cpd 54, 5-(5-chloro-benzo[1,3]dioxol-4-yl)-4-oxo-4,5-dihydro-3H-1-thia-3,5,6,8-tetraaza-acenaphthylene-2-carboxylic acid methyl ester], the figure is 25%. Still for that read-out and setting: as for `COc1cc(N2C(=O)Nc3c(C(=O)Nc4ccc(CN5CCN(C)CC5)cc4)sc4ncnc2c34)c(Cl)cc1Cl` [Cpd 60], the figure is 29%. Regarding `O=C(Nc1ccc(CN2CCOCC2)cc1)c1sc2ncnc3c2c1NC(=O)N3c1ccc(N2CCOCC2)cc1` [Cpd 123, 5-(4-morpholin-4-yl-phenyl)-4-oxo-4,5-dihydro-3H-1-thia-3,5,6,8-tetraaza-acenaphthylene-2-carboxylic acid (4-morpholin-4-ylmethyl-phenyl)-amide], the inhibition at 2 µM amounted to 11%.

(Values after patent US7579356B2, “Thia-tetraazaacenaphthylene kinase inhibitors” (Janssen Pharmaceutica NV, priority 2005, dated 2009).)
